Holding throughout (type): binding
Assay [1] addresses T1, CCR5 (Homo sapiens, UniProt P51681).
T1 construct: purchased Promega (in-house HiBiT-GPCR construct library, NanoBRET)
Nature of the assay: NanoBRET screen HiBiT-CCR5 in HEK293. As for the experimental part:
(§1) Each tracer candidate was screened across the entire library of HiBiT-GPCR constructs using NanoBRET as the detection modality. As depicted in Figure 4A, the specificity of interactions was evaluated through decrease in BRET due to competitive displacement of a bound tracer by excess parental compound. Each tracer was analyzed for binding to each HiBiT-GPCR fusion in the absence and in the presence of competing parental compound. Briefly, HEK293 cells were transfected with HiBiT-GPCR constructs diluted into promoterless DNA to reduce expression and maximize translocation to the cell surface. Each tracer candidate was then screened at concentrations of 1 μM and 0.1 μM across cells expressing these fusions. Cells were treated for 1.5 h with tracer either alone or in the presence of 20 μM competing parental compound (i.e., control). BRET was measured upon addition of purified LgBiT and subsequent complementation with HiBiT genetically fused to a GPCR. The specificity of interactions was assessed through a decrease in BRET signal due to competitive displacement of the bound tracer. To further gauge the robustness of these interactions, the fold response over the control (i.e., BRETtracer/BRETcontrol) was calculated. We chose a 1.5-fold response, which translates to ≥7-fold signal over noise as the minimal threshold required to score an interaction as positive. […]. Below we highlight the screening results obtained for our exemplary fluorescent tracers based on Clozapine, Amitriptyline and AZD1283.
(§2) HiBiT-GPCR DNA constructs were diluted in 10 mM Tris pH 8 to a final concentration of 0.01 μg/μL, arrayed in 96-well plates and stored at −20 °C. For transfection, HEK293 cells were suspended in Opti-MEM (without phenol red) supplemented with 2% fetal bovine serum (Seradigm) and 100 units/mL penicillin–streptomycin (Gibco) at a final concentration of 220,000 cells/mL and dispensed into white 96-well plates at 90 μL/well. Subsequent transfections and screens were carried using an Agilent Bravo Automated Liquid Handling Platform. First, the 96-well HiBiT DNA arrays were diluted 25-fold in Opti-MEM (without serum or phenol red) to a final concentration of 0.0004 μg/μL and 20 μL of the diluted DNAs were transferred into new 96-well plates. Next, promoterless carrier DNA (1 μg/μL) was diluted 25-fold (0.04 μg/μL) and then dispensed into the diluted arrays at 20 μL/well. Following brief mixing, Viafect transfection reagent (Promega) diluted 16-fold into Opti-MEM was dispensed into the plates at 40 μL/well. After mixing by pipetting, plates were incubated for 10 min on the pipetting station deck. The DNA-transfection reagent complexes were then added to plates containing cells. To facilitate the screen, 10 μL of DNA-transfection reagent complexes were added in duplicates to the top 4 and bottom 4 rows, resulting in two identical 48-well arrays per plate. Plates with transfected cells were incubated for 18–20 h at 37 °C/5% CO2. A screen of each tracer across the entire library using two different concentrations requires duplicate plates of transfected cells. Depending on the number of tracers being screened, transfections can be scaled up using the same ratios. The next day, for each tracer, four 20× screening solutions in tracer dilution buffer (Promega) were prepared: two duplicates at final concentration of 20 μM and two duplicates at a final concentration of 2 μM. A competing unmodified compound was added to one of each duplicate at a final concentration of 400 μM. The four resulting solutions were diluted 4-fold in Opti-MEM without serum or phenol red to generate 5× solutions (5 µM and 0.5 µM tracer +/− 100 μM competing compound). To screen the library, a BioTek MultiFlo FX liquid dispenser was used to dispense 22.5 µL of tracer solution to the top 4 rows and 22.5 µL tracer + competing compound solution to the 4 bottom rows. Plates were briefly mixed on an orbital shaker and incubated for 1.5 h at room temperature. […]
(BRET reads energy transfer from a luciferase to a nearby fluorophore.)

Assay [2] deals with T2, VIPR2 (Homo sapiens, UniProt P41587).
T2 construct: purchased Promega (in-house HiBiT-GPCR construct library, NanoBRET)
T2 sequence (P41587 24-438): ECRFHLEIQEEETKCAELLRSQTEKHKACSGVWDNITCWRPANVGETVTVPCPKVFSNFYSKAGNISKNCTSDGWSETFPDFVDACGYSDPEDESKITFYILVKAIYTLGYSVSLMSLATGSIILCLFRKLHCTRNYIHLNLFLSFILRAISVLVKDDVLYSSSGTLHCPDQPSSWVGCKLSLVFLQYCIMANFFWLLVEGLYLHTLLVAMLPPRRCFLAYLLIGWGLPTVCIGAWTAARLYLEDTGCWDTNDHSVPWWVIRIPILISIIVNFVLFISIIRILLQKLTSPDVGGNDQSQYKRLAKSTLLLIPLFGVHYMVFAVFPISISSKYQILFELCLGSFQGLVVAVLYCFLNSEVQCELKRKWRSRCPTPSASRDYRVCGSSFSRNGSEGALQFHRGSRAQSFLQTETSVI
Briefly: NanoBRET screen HiBiT-VIPR2 in HEK293. As for the experimental part:
as §1, §2

Assay [3] has as its target T3, C5AR1 (Homo sapiens, UniProt P21730).
T3 construct: purchased Promega (in-house HiBiT-GPCR construct library, NanoBRET)
T3 sequence (P21730 1-350): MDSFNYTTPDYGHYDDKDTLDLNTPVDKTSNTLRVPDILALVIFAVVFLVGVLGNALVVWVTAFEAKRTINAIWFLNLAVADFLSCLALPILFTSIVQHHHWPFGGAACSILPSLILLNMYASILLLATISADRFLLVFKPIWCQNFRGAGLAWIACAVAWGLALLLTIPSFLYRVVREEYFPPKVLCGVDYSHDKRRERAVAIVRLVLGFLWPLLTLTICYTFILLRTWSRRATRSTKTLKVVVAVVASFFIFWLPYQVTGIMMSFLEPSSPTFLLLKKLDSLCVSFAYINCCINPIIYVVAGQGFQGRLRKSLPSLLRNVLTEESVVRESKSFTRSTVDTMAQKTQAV
Briefly: NanoBRET screen HiBiT-C5AR1 in HEK293. As for the experimental part:
as §1, §2

T1 sequence (P51681 whole entry): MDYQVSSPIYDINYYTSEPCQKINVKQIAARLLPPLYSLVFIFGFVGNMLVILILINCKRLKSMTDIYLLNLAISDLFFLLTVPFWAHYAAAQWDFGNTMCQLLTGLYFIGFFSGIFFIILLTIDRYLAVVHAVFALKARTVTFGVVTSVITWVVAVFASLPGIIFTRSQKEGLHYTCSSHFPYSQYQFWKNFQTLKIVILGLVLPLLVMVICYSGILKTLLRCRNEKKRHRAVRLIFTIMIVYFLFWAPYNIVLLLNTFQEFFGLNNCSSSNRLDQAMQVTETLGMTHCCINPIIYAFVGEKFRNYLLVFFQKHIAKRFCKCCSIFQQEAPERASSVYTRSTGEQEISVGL

With `O=C(CCc1ccc2n1[B-](F)(F)[N+]1=C(c3ccc[nH]3)C=CC1=C2)NCc1ccc(C(=O)NCCOCCC(=O)N[C@@H]2CC[C@@]3(O)[C@H]4Cc5ccc(O)c6c5[C@@]3(CCN4CC3CC3)[C@H]2O6)cc1` [Naltrexone-3-NB590], the “NanoBRET Fold Response” value in assay [1] (CCR5, tracer 0.1μM) amounted to 1.21; in assay [1] (CCR5, tracer 1μM), 1.11; in assay [2] (VIPR2, tracer 0.1μM), 1.17; in assay [2] (VIPR2, tracer 1μM) it was 1.05; in assay [3] (C5AR1, tracer 0.1μM) it was 0.94; in assay [3] (C5AR1, tracer 1μM), 0.93.
`CN1CCN(C2=Nc3cc(Cl)ccc3N(CC(=O)NCCOCCOCCOCCOCCNC(=O)CCc3ccc4n3[B-](F)(F)[N+]3=C(c5ccc[nH]5)C=CC3=C4)c3ccccc32)CC1` [Clozapine-c-2-NB590]: the “NanoBRET Fold Response” value in assay [1] (CCR5, 0.1μM tracer) was determined as 0.98; in assay [1] (CCR5, 1μM tracer) it was 0.95; in assay [2] (VIPR2, 0.1μM tracer), 0.97; in assay [2] (VIPR2, 1μM tracer), 0.86; in assay [3] (C5AR1, 0.1μM tracer) it was 1.00; in assay [3] (C5AR1, 1μM tracer), 1.05.
For `O=C(CCOCCOCCOCCOCCNC(=O)CCc1ccc2n1[B-](F)(F)[N+]1=C(c3ccc[nH]3)C=CC1=C2)NCCCN1CCN(C2=Nc3cc(Cl)ccc3Nc3ccccc32)CC1` [Clozapine-a-2-NB590], the “NanoBRET Fold Response” value in assay [1] (CCR5, 0.1μM tracer) worked out at 1.07; in assay [1] (CCR5, 1μM tracer) it was 0.90; in assay [2] (VIPR2, 0.1μM tracer), 1.14; in assay [2] (VIPR2, 1μM tracer), 0.89; in assay [3] (C5AR1, 0.1μM tracer) it was 1.04; in assay [3] (C5AR1, 1μM tracer), 1.11.
As to `CCOC(=O)c1cc(C#N)c(N2CCC(C(=O)NS(=O)(=O)Cc3ccccc3/C=C/C(=O)NCCNC(=O)CCc3ccc4n3[B-](F)(F)[N+]3=C(c5ccc[nH]5)C=CC3=C4)CC2)nc1C` [AZD1283-1-NB590], the “NanoBRET Fold Response” value in assay [1] (CCR5, 0.1μM) worked out at 1.02; in assay [1] (CCR5, 1μM) it was 1.04; in assay [2] (VIPR2, 0.1μM) it was 1.19; in assay [2] (VIPR2, 1μM) it was 1.15; in assay [3] (C5AR1, 0.1μM), 1.07; in assay [3] (C5AR1, 1μM), 1.07.
Regarding `COc1ccc2[nH]c(-c3ccc(CNC(=O)CCOCCOCCOCCOCCNC(=O)CCc4ccc5n4[B-](F)(F)[N+]4=C(c6ccc[nH]6)C=CC4=C5)cc3)c(CCNC(C)=O)c2n1` [AzomelatoninICO9-2-NB590], the “NanoBRET Fold Response” value in assay [1] (0.1μM tracer) was 1.31; in assay [1] (1μM tracer) it was 0.98; in assay [2] (0.1μM tracer), 0.99; in assay [2] (1μM tracer), 1.12; in assay [3] (0.1μM tracer) it was 0.99; in assay [3] (1μM tracer) it was 0.98.
With `CCCn1c(=O)c2[nH]c(-c3ccc(OCC(=O)NCCNC(=O)CCOCCNC(=O)c4ccc(CNC(=O)CCc5ccc6n5[B-](F)(F)[N+]5=C(c7ccc[nH]7)C=CC5=C6)cc4)cc3)nc2n(CCC)c1=O` [XAC-3-NB590], the “NanoBRET Fold Response” value in assay [1] (CCR5, tracer 0.1μM) is recorded as 0.83; in assay [1] (CCR5, tracer 1μM), 0.86; in assay [2] (VIPR2, tracer 0.1μM) it was 0.72; in assay [2] (VIPR2, tracer 1μM) it was 0.91; in assay [3] (C5AR1, tracer 0.1μM), 0.95; in assay [3] (C5AR1, tracer 1μM) it was 1.04.
Regarding `COc1ccccc1N1CCN(CCCCN2C(=O)c3ccc(CNC(=O)CCOCCNC(=O)c4ccc(CNC(=O)CCc5ccc6n5[B-](F)(F)[N+]5=C(c7ccc[nH]7)C=CC5=C6)cc4)cc3C2=O)CC1` [NAN-190-3-NB590], the “NanoBRET Fold Response” value amounted to 0.95 in assay [1] (CCR5, tracer 0.1μM); 1.03 in assay [1] (CCR5, tracer 1μM); 0.98 in assay [2] (VIPR2, tracer 0.1μM); 0.87 in assay [2] (VIPR2, tracer 1μM); 1.02 in assay [3] (C5AR1, tracer 0.1μM); 1.10 in assay [3] (C5AR1, tracer 1μM).
Consider `CN(CCC=C1c2ccccc2CCc2ccccc21)C(=O)CCOCCOCCOCCOCCNC(=O)CCc1ccc2n1[B-](F)(F)[N+]1=C(c3ccc[nH]3)C=CC1=C2` [Amitriptyline-e-2-NB590], for which the results for the “NanoBRET Fold Response” value in assay [1] (tracer at 1μM), in assay [2] (tracer at 1μM) and in assay [3] (tracer at 1μM) were 0.97, 1.06 and 1.02, respectively.
Regarding `O=C(CCc1ccc2n1[B-](F)(F)[N+]1=C(c3ccc[nH]3)C=CC1=C2)NCc1ccc(C(=O)NCCOCCOCCNCC(O)COc2cccc3ccccc23)cc1` (stereo not drawn) [Propranolol-3-NB590], the “NanoBRET Fold Response” value in assay [1] (CCR5, 0.1μM) came to 1.09; in assay [1] (CCR5, 1μM), 0.96; in assay [2] (VIPR2, 0.1μM) it was 0.95; in assay [2] (VIPR2, 1μM) it was 1.03; in assay [3] (C5AR1, 0.1μM), 1.05; in assay [3] (C5AR1, 1μM), 1.03.
For `COc1ccc2c(n1)c(CCNC(C)=O)cn2CCNC(=O)CCc1ccc2n1[B-](F)(F)[N+]1=C(c3ccc[nH]3)C=CC1=C2` [Azamelatonin-1-NB590], the “NanoBRET Fold Response” value was 1.29 in assay [1] (0.1μM tracer); 0.63 in assay [1] (1μM tracer); 0.99 in assay [2] (0.1μM tracer); 0.99 in assay [2] (1μM tracer); 0.90 in assay [3] (0.1μM tracer); 0.94 in assay [3] (1μM tracer).
In the case of `O=C(CCOCCOCCOCCOCCNC(=O)CCc1ccc2n1[B-](F)(F)[N+]1=C(c3ccc[nH]3)C=CC1=C2)NCCCN1CCN(C2=Nc3ccccc3Oc3ccc(Cl)cc32)CC1` [Loxapine-a-2-NB590], the “NanoBRET Fold Response” value in assay [1] (CCR5, tracer 0.1μM) is 1.00; in assay [1] (CCR5, tracer 1μM), 1.34; in assay [2] (VIPR2, tracer 0.1μM) it was 1.15; in assay [2] (VIPR2, tracer 1μM), 0.83; in assay [3] (C5AR1, tracer 0.1μM), 1.01; in assay [3] (C5AR1, tracer 1μM), 0.98.
Take `COc1ccccc1N1CCN(CCCCN2C(=O)c3ccc(CNC(=O)CCOCCOCCOCCOCCNC(=O)CCc4ccc5n4[B-](F)(F)[N+]4=C(c6ccc[nH]6)C=CC4=C5)cc3C2=O)CC1` [NAN-190-2-NB590]: the “NanoBRET Fold Response” value is 0.95 in assay [1] (CCR5, tracer 0.1μM); 1.03 in assay [1] (CCR5, tracer 1μM); 1.05 in assay [2] (VIPR2, tracer 0.1μM); 1.03 in assay [2] (VIPR2, tracer 1μM); 1.03 in assay [3] (C5AR1, tracer 0.1μM); 1.04 in assay [3] (C5AR1, tracer 1μM).

Values taken from PMC8151276, “An Integrated Approach toward NanoBRET Tracers for Analysis of GPCR Ligand Engagement” (Molecules, 2021).
